What was measured:
[1] = biological target: BLK (Homo sapiens, UniProt P51451); assay: AssayQuant Sox-peptide kinase panel, […] compound, […] ATP; […] inhibition; format: biochemical
[2] = biological target: BRK/PTK6 (Homo sapiens, UniProt Q13882); assay: as above; format: biochemical
BRK/PTK6, sequence (Q13882 whole entry): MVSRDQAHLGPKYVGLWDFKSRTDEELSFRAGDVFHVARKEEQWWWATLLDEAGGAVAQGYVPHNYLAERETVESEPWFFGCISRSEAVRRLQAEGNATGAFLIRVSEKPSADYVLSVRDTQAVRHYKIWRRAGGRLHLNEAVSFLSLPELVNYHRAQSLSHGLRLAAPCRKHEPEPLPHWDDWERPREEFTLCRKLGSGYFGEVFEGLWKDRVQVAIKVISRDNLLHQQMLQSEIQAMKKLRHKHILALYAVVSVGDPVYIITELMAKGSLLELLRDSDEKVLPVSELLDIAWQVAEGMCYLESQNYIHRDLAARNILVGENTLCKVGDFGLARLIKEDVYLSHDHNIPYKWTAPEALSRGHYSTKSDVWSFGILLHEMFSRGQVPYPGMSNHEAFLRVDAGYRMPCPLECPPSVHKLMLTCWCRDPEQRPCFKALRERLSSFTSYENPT

BLK, sequence (P51451 2-505): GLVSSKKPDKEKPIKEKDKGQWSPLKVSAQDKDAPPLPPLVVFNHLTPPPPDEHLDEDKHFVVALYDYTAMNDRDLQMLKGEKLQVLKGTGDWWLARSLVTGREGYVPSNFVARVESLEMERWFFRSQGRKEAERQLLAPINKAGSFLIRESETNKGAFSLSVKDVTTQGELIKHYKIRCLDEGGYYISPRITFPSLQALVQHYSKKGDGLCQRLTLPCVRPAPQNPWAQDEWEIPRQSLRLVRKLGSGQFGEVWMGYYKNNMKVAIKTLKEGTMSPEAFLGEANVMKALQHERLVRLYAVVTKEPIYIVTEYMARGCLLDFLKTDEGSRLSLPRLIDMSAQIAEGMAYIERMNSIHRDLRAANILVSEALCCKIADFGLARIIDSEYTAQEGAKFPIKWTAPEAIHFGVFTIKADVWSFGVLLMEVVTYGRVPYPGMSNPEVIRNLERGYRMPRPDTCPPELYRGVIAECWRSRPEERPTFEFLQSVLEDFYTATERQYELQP

Substance: GB7208
- % inhibition at 1 μM [1]: > 50
- % inhibition at 1 μM [2]: > 50
